Our source for the melting point values is US8841330B2, “Omega-carboxyaryl substituted diphenyl ureas as raf kinase inhibitors” (Bayer Healthcare LLC, priority 2000, dated 2014).

By melting point is commonly meant the temperature, or range, at which the solid turns liquid.

For the molecule `COC(=O)c1ccc(Oc2ccc(NC(=O)Nc3ccc(Cl)c(C(F)(F)F)c3)cc2)cn1` [Entry 55, N-(4-chloro-3-(trifluoromethyl)phenyl)-N′-(4-(2-(methoxycarbonyl)-5-pyridyloxy)phenyl)urea], the melting point fell in the range of 228 to 230 °C.
In the case of `CNC(=O)c1cc(Oc2ccc(NC(=O)Nc3ccc(Oc4ccnc(C(=O)NC)c4)cc3)cc2)ccn1` [Entry 103, bis(4-(2-(N-methylcarbamoyl)-4-pyridyloxy)phenyl)urea] it was 125 to 130 °C.
